# Experimental data from US8703768B2, “Nitrogen containing heteroaryl compounds” (Hoffmann-La Roche Inc., priority 2010, dated 2014).
# Target: human PDE10A (Homo sapiens (Human), UniProt Q9Y233)
# Assay: human PDE10A full length Scintillation Proximity Assay (SPA)
# Format: biochemical
# Details: 50 nM cGMP and 50 nM [3H]-cGMP, 20 minutes at room temperature; read-out: PDE10A inhibition IC50
# Description: The following test was carried out in order to determine the activity of the compounds of the present invention.
# The human PDE10A full length assay was performed in 96-well micro titer plates. […] Non-specific activity was tested without the enzyme. The reaction was initiated by the addition of the substrate solution (cGMP and [^3H]-cGMP) and allowed to progress for 20 minutes at room temperature. The reaction was terminated by adding 25 μl of YSi-SPA scintillation beads (GE Healthcare, cat. # RPNQ0150) in 18 mM zinc sulphate solution (stop reagent). After 1 h under shaking, the plate was centrifuged one minute at 170 g to allow beads to settle. Afterwards, radioactive counts were measured on a Perkin Elmer TopCount Scintillation plate reader.
# Sequence of human PDE10A (Q9Y233 other isoform, or with tags, fused parts or gaps): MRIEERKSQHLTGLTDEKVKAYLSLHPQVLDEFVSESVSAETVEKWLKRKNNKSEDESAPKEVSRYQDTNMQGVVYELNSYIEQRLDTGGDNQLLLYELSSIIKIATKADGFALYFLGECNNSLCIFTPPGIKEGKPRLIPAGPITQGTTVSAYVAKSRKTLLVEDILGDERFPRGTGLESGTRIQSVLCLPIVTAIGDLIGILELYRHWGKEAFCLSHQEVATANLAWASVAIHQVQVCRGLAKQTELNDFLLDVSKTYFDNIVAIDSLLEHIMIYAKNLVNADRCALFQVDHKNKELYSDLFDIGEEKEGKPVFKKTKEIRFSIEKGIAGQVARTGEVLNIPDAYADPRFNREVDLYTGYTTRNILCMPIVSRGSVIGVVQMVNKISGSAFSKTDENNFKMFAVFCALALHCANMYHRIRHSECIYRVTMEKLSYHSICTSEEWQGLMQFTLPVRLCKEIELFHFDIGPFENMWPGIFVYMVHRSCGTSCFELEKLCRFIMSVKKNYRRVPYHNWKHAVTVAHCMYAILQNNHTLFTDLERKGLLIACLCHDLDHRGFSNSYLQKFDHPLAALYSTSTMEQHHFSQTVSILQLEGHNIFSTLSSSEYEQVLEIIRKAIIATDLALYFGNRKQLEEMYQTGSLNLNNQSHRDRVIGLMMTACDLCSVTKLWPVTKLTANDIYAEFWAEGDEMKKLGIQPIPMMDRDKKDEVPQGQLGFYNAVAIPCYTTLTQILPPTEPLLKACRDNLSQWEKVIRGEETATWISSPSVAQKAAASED
row,Compound,IC50 [nM]
1,"Cn1ncc(NC(=O)c2nc(C3CC3)cnc2Nc2cncnc2)c1C(=O)NCC1CCCO1 (stereo not drawn) [Example 232, 6-Cyclopropyl-3-(pyrimidin-5-ylamino)-pyrazine-2-carboxylic acid {1-methyl-5-[(tetrahydro-furan-2-ylmethyl)-carbamoyl]-1H-pyrazol-4-yl}-amide]",4
2,"CN(CC(F)(F)F)C(=O)c1c(NC(=O)c2nc(C3CC3)cnc2Nc2cncnc2)cnn1C [Example 237, 6-Cyclopropyl-3-(pyrimidin-5-ylamino)-pyrazine-2-carboxylic acid {1-methyl-5-[methyl-(2,2,2-trifluoro-ethyl)-carbamoyl]-1H-pyrazol-4-yl}-amide]",93.4
3,"Cn1ncc(NC(=O)c2nc(C3CC3)cnc2Nc2cncnc2)c1C(=O)NC[C@H]1CCCO1 [Example 256, 6-Cyclopropyl-3-(pyrimidin-5-ylamino)-pyrazine-2-carboxylic acid (1-methyl-5-{[(R)-1-(tetrahydro-furan-2-yl)methyl]-carbamoyl}-1H-pyrazol-4-yl)-amide]",3.3
4,"CNC(=O)c1nn(C)cc1NC(=O)c1nc(C2CCCO2)ccc1Nc1cncnc1 (stereo not drawn) [Example 103, 3-(Pyrimidin-5-ylamino)-6-(tetrahydro-furan-2-yl)-pyridine-2-carboxylic acid (1-methyl-3-methylcarbamoyl-1H-pyrazol-4-yl)-amide]",58.7
5,"Cc1ccc(NC(=O)c2nc(C3CC3)cnc2Nc2cncnc2)c(C(=O)NCC(C)(C)O)n1 [Example 183, 6-Cyclopropyl-3-(pyrimidin-5-ylamino)-pyrazine-2-carboxylic acid [2-(2-hydroxy-2-methyl-propylcarbamoyl)-6-methyl-pyridin-3-yl]-amide]",0.3
6,"CCCN(C)C(=O)c1c(NC(=O)c2nc(C3CC3)cnc2Nc2cncnc2)cnn1C [Example 229, 6-Cyclopropyl-3-(pyrimidin-5-ylamino)-pyrazine-2-carboxylic acid [1-methyl-5-(methyl-propyl-carbamoyl)-1H-pyrazol-4-yl]-amide]",12.6
7,"CN(C)C(=O)c1c(F)cc(F)cc1NC(=O)c1nc(C2CC2)cnc1Nc1cncnc1 [Example 300, 6-Cyclopropyl-3-(pyrimidin-5-ylamino)-pyrazine-2-carboxylic acid (2-dimethylcarbamoyl-3,5-difluoro-phenyl)-amide]",16.7
8,"CN(CC1CCCO1)C(=O)c1c(NC(=O)c2nc(C3CC3)cnc2Nc2cncnc2)cnn1C (stereo not drawn) [Example 257, 6-Cyclopropyl-3-(pyrimidin-5-ylamino)-pyrazine-2-carboxylic acid {1-methyl-5-[methyl-(tetrahydro-furan-2-ylmethyl)-carbamoyl]-1H-pyrazol-4-yl}-amide]",67.1
9,"CCCCN(C)C(=O)c1c(NC(=O)c2nc(C3CC3)cnc2Nc2cncnc2)cnn1C [Example 223, 6-Cyclopropyl-3-(pyrimidin-5-ylamino)-pyrazine-2-carboxylic acid [5-(butyl-methyl-carbamoyl)-1-methyl-1H-pyrazol-4-yl]-amide]",18.4
10,"CNC(=O)COc1ccc(NC(=O)c2nc(C3CC3)cnc2Nc2cncnc2)c(C(=O)NC)c1 [Example 322, 6-Cyclopropyl-3-(pyrimidin-5-ylamino)-pyrazine-2-carboxylic acid (2-methylcarbamoyl-4-methylcarbamoylmethoxy-phenyl)-amide]",1.7
11,"CN(C)C1CCN(C(=O)c2ccncc2NC(=O)c2nc(C3CC3)ccc2Nc2cncnc2)C1 (stereo not drawn) [Example 53, 6-Cyclopropyl-3-(pyrimidin-5-ylamino)-pyridine-2-carboxylic acid [4-(3-dimethylamino-pyrrolidine-1-carbonyl)-pyridin-3-yl]-amide]",73.7
12,"CNC(=O)c1c(NC(=O)c2nc(C3CC3)cnc2Nc2cncnc2)cnn1CCO [Example 264, 6-Cyclopropyl-3-(pyrimidin-5-ylamino)-pyrazine-2-carboxylic acid [1-(2-hydroxy-ethyl)-5-methylcarbamoyl-1H-pyrazol-4-yl]-amide]",3.2
